# Source: patent US10806794B2, “Protease inhibitors having enhanced features” (priority 2008, dated 2020)
# Where “and” joins values, the source holds several entries; their conditions need not be identical. Equal entries are not always repeated. Where two headings read alike, the source gives them in different places.
# Experiments:
# [1] = biological target: recombinant HIV-1 protease (Human immunodeficiency virus type 1 group M subtype B (isolate HXB2) (HIV-1), UniProt P04585); experiment: Enzyme inhibition of purified HIV-1 protease (SensoLyte 520 HIV-Protease Assay Kit); type: biochemical; conditions: read-out: IC50 ± SD
# Protocol: Protease inhibitors (PI) are used to treat HIV infection by preventing viral assembly and maturation through the inhibition of HIV-1 protease activity. Biochemical assays were performed to evaluate the potential of PEG-PI conjugates to inhibit HIV-1 protease activity, relative to their respective PI parent molecules. Activity assays were performed at using the SensoLyte 520 HIV-Protease Assay Kit (Anaspec Inc., San Jose, Calif.) and recombinant HIV-1 protease. Protease activity was monitored by the formation of a fluorescent reporter product generated during HIV-1 protease-mediated digestion of a quenched, fluorimetric substrate containing the p17/p24 Pr^gag cleavage site.
# CEM-SS cells [2] = conditions: absence of viral infection
# Protocol: To evaluate whether conjugated protease inhibitors retain the ability to protect against HIV-1 infection, CEM-SS cells infected with the RF strain of HIV-1 were treated with test compounds for six days, and then cell viability was monitored using the tetrazolium dye XTT. […] A value for Therapeutic Index (TI) was calculated as TC50/EC50.
# [3] = Metabolic stability in cryopreserved human hepatocytes; conditions: human, hepatocytes
# Protocol: (§1) Metabolism of PI conjugates was investigated by monitoring the levels of unmetabolized parent compound following incubation with cryopreserved human or monkey hepatocytes. The use of whole hepatocytes rather than microsomes requires that the drugs cross the cell membrane to interact with intracellularly-localized metabolic enzymes, and thus provides the most relevant in vitro system for understanding overall metabolic stability of these compounds.
# (§2) Test compounds (0.1 μM or 3 μM, as indicated) are incubated with cryopreserved human hepatocytes at a cell density of 0.5×10^6 viable cells/mL. […] Duplicate samples (50 μL) are removed from the incubation mixture at various timepoints up to four hours (for 0.1 μM test compound concentration), or one or two hours (for 3 μM test compound concentration), and the reaction is quenched by the addition of methanol containing internal standard (100 μL). The samples are centrifuged (2500 rpm at 4° C. for 20 min), and the supernatants at each time point pooled for cassette analysis by LC-MS/MS.
# [4] = Plasma protein binding by equilibrium dialysis, human plasma; type: in vitro ADME; conditions: human plasma, 5 μM, fraction unbound; read-out: Plasma Protein Binding Fu ± SD
# Procedure, shortened: (§3)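 Test compound solutions (5 μM, final DMSO 0.5%) are made in buffer and in plasma of the relevant species. Plasma solution goes on one membrane side, plasma-free solution on the other. After 2 h at 37 °C, both sides are analysed by LC-MS/MS.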
# [5] = Microsomal protein binding by equilibrium dialysis; type: in vitro ADME; conditions: human liver microsomes, read-out: Microsomal Protein Binding Fu ± SD
# Procedure, shortened: (§4)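 Compound at 3 μM final in buffer with or without human liver microsomes, dialysed to equilibrium at 37 °C. Both sides quantified by LC-MS/MS to derive fraction unbound (Fu).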
# HIV-1RF [6] = experiment: Pre-exposure assay: CEM-SS cells treated before HIV-1RF infection, cell viability; type: cell-based; conditions: for EC50: Human immunodeficiency virus 1, CEM-SS
# Protocol: (§5) The effects of pre- and post-infection PI treatment on CEM-SS toxicity were assessed. […] Cell toxicity was monitored six days after infection using XTT reagent. In the post-exposure assay, test compounds were added to cells 0, 24, 48, or 72 h after HIV-1 infection, and cell viability was measured six days post-infection.
# CEM-SS cells [7] = experiment: Pre-exposure assay: toxicity in CEM-SS cells
# Protocol: as §5
# HIV-1RF [8] = experiment: Post-exposure assay: compounds added after HIV-1 infection of CEM-SS cells, cell viability; type: cell-based; conditions: Human immunodeficiency virus 1, CEM-SS
# Protocol: as §5
# CEM-SS cells [9] = experiment: Post-exposure assay: toxicity in CEM-SS cells
# Protocol: as §5
# HIV-1RF [10] = experiment: p24 levels after single high MOI HIV-1RF infection of CEM-SS cells, time of addition; type: cell-based; conditions: 1 μM
# Protocol: The cytoprotective effect against HIV of the PEG-protease inhibitor conjugates was evaluated during a single round of high multiplicity of infection (“MOI”) HIV-1 infection in CEM-SS cells. CEM-SS cells were incubated for one hour with a single high MOI dose of HIV-1RF. Cells were washed to remove free virus, then test compounds were added to cells at 0, 2, 4, 6, 8, 16, or 24 hours after HIV-1 infection. To monitor viral replication, cell supernatants were analyzed at 30 hours post-infection for levels of the HIV capsid protein p24 (FIG. 1). […] Nevirapine inhibited viral replication at 1 μM when added to cells up to four hours post-infection, and at 10 μM when added up to eight hours post-infection.
# HIV-1 virions = experiment: Infectivity of HIV-1 virions from treated cells on naive CEM-SS cells; type: cell-based
# Protocol: In concert with p24 analysis, cell supernatants collected from cells exposed to test compounds at 8, 16, or 24 hours post-infection were used to infect naïve CEM-SS cells. Cell viability was measured six days post-infection as a measure of virus infectivity (Table 5).
# HIV-1 HT/92/599 = experiment: HIV-1 reverse transcriptase activity after infection of fresh human PBMCs; type: cell-based; conditions: read-out: PBMC/HIV-1HT/92/599 EC50 ± SD; seven days, reverse transcriptase activity
# Protocol: (§6) Fresh human peripheral blood mononuclear cells (PBMCs) obtained from a commercial source were purified following centrifugation using a Ficoll-Hypaque density gradient. Viable cells were induced to proliferate in the presence of PHA-P and recombinant human IL-2 for 72 hours. […] Cell supernatant containing HIV-1 viral was incubated for 90 minutes at 37° C. with a reaction mixture containing EGTA, Triton X-100, Tris (pH 7.4), DTT, MgCl2, poly rA, oligo dT, and tritiated thymidine triphosphate (TTP). Incorporation of TTP into DNA was monitored by spotting the reaction mixture onto a DEAE filter mat, followed by washes with 5% phosphate buffer, distilled water, and 70% ethanol, and subsequent drying of the mat. Radioactivity was measured using a Wallac 1450 Microbeta Trilux liquid scintillation counter using Opti-Fluor O. Test compound-associated toxicity was measured in PBMCs cultured for seven days in the absence of virus using XTT reagent. […] TI was calculated as TC50/EC50.
# PBMCs = experiment: Toxicity in PBMCs cultured without virus (XTT)
# Protocol: as §6, with “mat.” for “mat. Radioactivity was measured using a Wallac 1450 Microbeta Trilux liquid scintillation counter using Opti-Fluor O. Test compound-associated toxicity was measured in PBMCs cultured for seven days in the absence of virus using XTT reagent.”
# [11] = Metabolic stability in human liver microsomes; conditions: human liver microsomes, 3 μM
# Protocol: The human liver microsome-mediated biotransformation of PEG-PI compounds was determined by monitoring the loss of the substrate as a function of time. […] Test compounds (3 μM final concentration) were preincubated with pooled (male and female) human liver microsomes (0.5 mg/mL final protein concentration) in buffer (0.1M phosphate buffer, pH 7.4) at 37° C. Reactions were initiated by the addition of NADPH (1 mM final concentration), and allowed to continue for 0, 5, 15, 30, and 45 minutes. […] Sample supernatants are analyzed by liquid chromatography-tandem mass spectrometry.
# human hepatocytes = experiment: Metabolic stability in cryopreserved human hepatocytes; conditions: human hepatocytes, 3 uM, incubated up to one hour
# Protocol: as §1, §2
# CYP3A4 [12] = biological target: T1, CYP3A4 (Homo sapiens (Human), UniProt P08684); experiment: Metabolic stability in CYP3A4-expressing Bactosomes; type: in vitro ADME; conditions: 5 μM
# Protocol: (§7) Compounds were evaluated for their propensity to act as substrates of individual human cytochrome P450 enzymes using a bacterial membrane preparation co-expressing human NADPH-cytochrome P450 reductase with either human CYP3A4 or CYP2D6 (Bactosomes™ Cypex, Ltd., Dundee, UK). In vitro metabolism studies using Bactosomes™ expressing individual human CYP isoforms monitor the extent to which a test compound is metabolized by a single CYP450 enzyme and allow identification of the CYP isoforms that may be responsible for the metabolism of a test compound. Timecourse analyses of test molecules (5 μM) with CYP2D6- or CYP3A4-expressing Bactosomes™ (100 pmol/mL) are performed in buffer (0.1 M phosphate, pH 7.4) in a final reaction volume of 25 μL. […] Reactions are terminated by the addition of methanol (50 μL) containing internal standard at 0, 5, 15, 30, and 45 minutes.
# CYP2D6 = CYP2D6 (Homo sapiens (Human), UniProt P10635); experiment: Metabolic stability in CYP2D6-expressing Bactosomes; type: in vitro ADME; conditions: 5 μM
# Protocol: as §7
# human plasma proteins = experiment: Plasma protein binding by equilibrium dialysis, human plasma; type: in vitro ADME; conditions: human plasma, 5 μM, fraction unbound
# Procedure, shortened: as §3
# [13] = test system: human liver microsomal proteins; experiment: Microsomal protein binding by equilibrium dialysis; type: in vitro ADME; conditions: human liver microsomes, 3 μM, fraction unbound
# Procedure, shortened: as §4
# CYP3A4 [14] = biological target: T1, CYP3A4; experiment: CYP450 inhibition in human liver microsomes: CYP3A4;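 note: incubation at 37 °C started by adding 1 mM NADPH, with formation of the probe metabolite measured via LC-MS/MS or fluorescent detection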
# T1 sequence (P08684 whole entry, canonical isoform): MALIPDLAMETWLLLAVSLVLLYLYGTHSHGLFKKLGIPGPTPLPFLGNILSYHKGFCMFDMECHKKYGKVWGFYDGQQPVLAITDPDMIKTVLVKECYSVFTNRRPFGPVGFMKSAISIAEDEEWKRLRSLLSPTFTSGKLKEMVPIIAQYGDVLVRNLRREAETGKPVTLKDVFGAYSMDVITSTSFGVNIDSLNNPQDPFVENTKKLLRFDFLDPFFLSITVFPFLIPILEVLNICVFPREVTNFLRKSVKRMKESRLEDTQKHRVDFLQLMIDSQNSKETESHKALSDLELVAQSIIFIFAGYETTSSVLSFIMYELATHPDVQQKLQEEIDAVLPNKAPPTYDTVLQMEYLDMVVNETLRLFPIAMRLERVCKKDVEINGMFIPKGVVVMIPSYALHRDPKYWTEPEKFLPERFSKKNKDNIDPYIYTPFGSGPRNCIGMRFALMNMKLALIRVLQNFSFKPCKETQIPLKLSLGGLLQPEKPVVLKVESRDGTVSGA
# CYP2D6, sequence (P10635 whole entry): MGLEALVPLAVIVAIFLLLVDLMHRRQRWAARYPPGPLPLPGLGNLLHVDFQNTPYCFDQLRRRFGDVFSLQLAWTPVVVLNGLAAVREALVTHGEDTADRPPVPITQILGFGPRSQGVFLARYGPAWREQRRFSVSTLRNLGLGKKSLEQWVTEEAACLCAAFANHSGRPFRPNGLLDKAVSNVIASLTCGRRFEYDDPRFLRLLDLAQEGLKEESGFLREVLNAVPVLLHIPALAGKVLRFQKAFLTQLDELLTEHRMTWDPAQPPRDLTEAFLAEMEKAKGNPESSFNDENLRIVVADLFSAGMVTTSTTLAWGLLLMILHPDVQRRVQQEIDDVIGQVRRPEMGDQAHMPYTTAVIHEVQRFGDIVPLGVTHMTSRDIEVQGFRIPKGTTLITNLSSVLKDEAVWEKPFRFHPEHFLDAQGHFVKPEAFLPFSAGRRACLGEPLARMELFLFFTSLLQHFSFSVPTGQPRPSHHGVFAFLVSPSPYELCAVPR
smiles,measurement,setting,value
"CCC[C@@]1(CCc2ccccc2)CC(O)=C([C@H](CC)c2cccc(NS(=O)(=O)c3ccc(C(F)(F)F)cn3)c2)C(=O)O1 [Tipranavir, reference compound]",IC50,[1],7.2 nM and 1.96 nM
same,CEM-SS TC50 ± SD,CEM-SS cells [2],30600 nM and 40700 nM
same,hepatocyte CLint at 3 μM,[3],0.111 ± 0.643 µL/min/1e6 cells
same,"fraction unbound at 2 h, 5 μM",[4],0.00866 ± 0.0013
same,fraction unbound at 3 μM,[5],0.302 ± 0.0853
Cc1ccnc2c1NC(=O)c1cccnc1N2C1CC1 [Nevirapine],EC50,HIV-1RF [6]; 2 h,470 nM
same,EC50,HIV-1RF [6]; 8 h,200 nM
same,EC50,HIV-1RF [6]; 24 h,640 nM
same,EC50 values after pre-treatment of cells,HIV-1RF [6]; in words,sub-micromolar
same,TC50,CEM-SS cells [7]; exposure 2 h pre-infection,>1000 nM
same,TC50,CEM-SS cells [7]; exposure 8 h pre-infection,>1000 nM
same,TC50,CEM-SS cells [7]; exposure 24 h pre-infection,>1000 nM
same,EC50,HIV-1RF [8]; 0 h,5 nM
same,EC50,HIV-1RF [8]; 24 h,10 nM
same,EC50,HIV-1RF [8]; 48 h,50 nM
same,EC50,HIV-1RF [8]; 72 h,200 nM
same,TC50,CEM-SS cells [9]; drug addition 0 h post-infection,>1000 nM
same,TC50,CEM-SS cells [9]; drug addition 24 h post-infection,>1000 nM
same,TC50,CEM-SS cells [9]; drug addition 48 h post-infection,>1000 nM
same,TC50,CEM-SS cells [9]; drug addition 72 h post-infection,>1000 nM
same,time of addition up to which antiviral activity (reduced p24) was seen,HIV-1RF [10],up to four
same,Percent Infectivity of HIV-1 Virions in comparison to virus-alone control,"HIV-1 virions; 0.1 μM, added 8 h post-infection",100.0%
same,Percent Infectivity of HIV-1 Virions in comparison to virus-alone control,"HIV-1 virions; 0.1 μM, added 16 h post-infection",117.0%
same,Percent Infectivity of HIV-1 Virions in comparison to virus-alone control,"HIV-1 virions; 0.1 μM, added 24 h post-infection",128.0%
same,Percent Infectivity of HIV-1 Virions in comparison to virus-alone control,"HIV-1 virions; 1 μM, added 8 h post-infection",100.0%
same,Percent Infectivity of HIV-1 Virions in comparison to virus-alone control,"HIV-1 virions; 1 μM, added 16 h post-infection",100.0%
same,Percent Infectivity of HIV-1 Virions in comparison to virus-alone control,"HIV-1 virions; 10 μM, added 8 h post-infection",10.0%
same,Percent Infectivity of HIV-1 Virions in comparison to virus-alone control,"HIV-1 virions; 10 μM, added 24 h post-infection",177.8%
COCCOCCOCCOC(=O)N[C@@H](C(=O)NC(Cc1ccccc1)[C@@H](O)CN(Cc1ccc(-c2ccccn2)cc1)NC(=O)[C@H](NC(=O)OCCOCCOCCOC)C(C)(C)C)C(C)(C)C (stereo partly drawn) [di-mPEG3-Atazanavir],EC50,HIV-1 HT/92/599,390 ± 60 nM
same,PBMC TC50 ± SD,PBMCs,146000 nM
same,CLint ± SEM,[11],190 ± 18.3 μL/min/mg protein
same,t1/2,[11],7.31 min
same,CLint ± SEM,human hepatocytes,3.46 ± 0.896 μL/min/10^6 cells
same,3A4 t1/2 ± SEM,CYP3A4 [12],1.6 ± 0.457 h
same,2D6 t1/2 ± SEM,CYP2D6,2.18 ± 0.808 h
same,Plasma Protein Binding Fu ± SD,human plasma proteins,0.376 ± 0.00639
same,Microsomal Protein Binding Fu ± SD,[13],highly unbound
same,IC50,"CYP3A4 [14]; read-out: CYP3A4 IC50 Midazolam, probe substrate midazolam",> 50000 nM
same,IC50,"CYP3A4 [14]; read-out: CYP3A4 IC50 Testosterone, probe substrate testosterone",23400 nM
